Data: PubChem BioAssay AID1963984 (Molecular Pharmacology Branch, DTP, NCI, 2024)

Tested on: 233499-124-R-J3-PDC spheroids with HUVEC/MSC, viability
Assay: Anticancer human tumor 233499-124-R-J3-PDC patient-derived colon adenocarcinoma cell line growth inhibition [PI3K]
Conditions: for IC50: curve of first compound; for viability, T/C: stronger effect = lower value; active = viability on the fitted dose curve at most 10% of control; inactive = the rest
Text: Combinatorial screen of targeted agents with the PI3K inhibitors inavolisib, alpelisib, duvelisib, and copanlisib in multi-cell type tumor spheroids
A high-throughput screen of multi-cell type tumor spheroids was designed to identify active combinations of targeted small molecules and PI3K pathway inhibitors. Complex spheroids include a stromal component modeled by human endothelial cells (HUVEC) and fibroblasts modeled by human mesenchymal stem cells (MSCs). The concentration ranges selected for each drug and investigational agent were based upon clinically achievable concentrations if the clinical Cmax of the agent was known.
Compounds. The drugs and investigational agents: inavolisib (NSC800729), alpelisib (NSC765974), duvelisib (NSC772469), copanlisib (NSC816437), ipatasertib (NSC767898), afuresertib (NSC778305), talazoparib (NSC767125), sapanisertib (NSC764658), selumetinib (NSC741078), tovorafenib (DAY101, NSC766906), vemurafenib (NSC761431), ravoxertinib (NSC781343), sotorasib (NSC818433), MRTX1133 (NSC 836407), abemaciclib (NSC 768073), palbociclib (NSC758247), venetoclax (NSC 766270), SY5609 (NSC837396), enzalutamide (NSC755605), and darolutamide (NSC825331), were obtained from the National Cancer Institute (NCI) Developmental Therapeutics Program Chemical Repository. The FDA-approved anticancer drug set is available from the NCI Developmental Therapeutics Program. […] The stock solutions were prepared in dimethyl sulfoxide (DMSO, Sigma-Aldrich, St. Louis, MO, cat. D2650) at 800-fold the tested concentration and stored at -70 degrees C prior to their use. All drugs and investigational agents were tested over a range starting from a high concentration at or near the clinical Cmax and decreasing in half-log increments. If the clinical Cmax for an agent had not been determined, the highest concentration tested was 10 microM.
Cell Culture. All cells were maintained in an incubator at 37 degrees C and 5% CO2 with 95% humidity. The PDC lines were cultured according to standard operating procedures established by the NCI PDMR (https://pdmr.cancer.gov/sops/default.htm). All PDCs were thawed and cultured in Matrigel-coated flasks prepared with a working solution of 1X Ham's F-12 nutrient mix, without supplementation (Invitrogen, Waltham, MA, cat. 11765054), 100 U/mL penicillin-streptomycin (Invitrogen, cat. 15140122), and 2.5% Matrigel (Corning Inc., Corning, NY, cat. 354248) for the first three passages. The 354836-022-R-J1-PDC, 475296-252-R-J1-PDC, and 997726-040-R-J2-PDC lines were cultured in 6A media, which includes advanced DMEM/F-12 (Thermo Fisher Scientific, cat. 12634028), 10 mM HEPES (Thermo Fisher Scientific, cat. 15630080), 1X GlutaMAX supplement (Thermo Fisher Scientific, cat. 35050061), 0.1 mg/mL primocin (InvivoGen, San Diego, CA, cat. ant-pm-2), 10% defined fetal bovine serum, heat inactivated (HyClone Laboratories Inc., Logan, UT, cat. SH30070.03HI), 50% L-WRN conditioned media (ATCC, cat. CRL-3276), 1.25 mM N-Acetyl-L-cysteine (Sigma-Aldrich, cat. A9165), 10 mM nicotinamide (Sigma-Aldrich, cat. N0636), 1X B-27 supplement (Thermo Fisher Scientific, cat. 17504044), 1X N-2 supplement (Thermo Fisher Scientific, cat. 17502048), and 10 microM Y-27632 dihydrochloride (Tocris Bioscience, Bristol, United Kingdom, cat. 1254). The 624824-186-R-J2-PDC line was cultured in 6C/Colon 1B media, which includes all 6A media components plus 50 ng/mL human EGF recombinant protein (Thermo Fisher Scientific, cat. PHG0311). […]

[1] = second compound 0.0316 µM, first compound 0.0316 µM
[2] = second compound 0.0316 µM, first compound 0.1 µM
[3] = second compound 0.1 µM, first compound 0.0316 µM
[4] = second compound 0.1 µM, first compound 0.1 µM
[5] = second compound 0.316 µM, first compound 0.0316 µM
[6] = second compound 0.316 µM, first compound 0.1 µM
[7] = second compound 1 µM, first compound 0.0316 µM
[8] = second compound 1 µM, first compound 0.1 µM
[9] = second compound 3.16 µM, first compound 0.0316 µM
[10] = second compound 3.16 µM, first compound 0.1 µM
[11] = second compound 10 µM, first compound 0.0316 µM
[12] = second compound 10 µM, first compound 0.1 µM
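Note: spheroids exposed to agents for seven days before readout.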
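Throughout, for viability, T/C: percent viability relative to DMSO vehicle control taken as 100%.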

Cn1ncnc1[C@H]1c2n[nH]c(=O)c3cc(F)cc(c23)N[C@@H]1c1ccc(F)cc1 + Cc1nc(NC(=O)N2CCCC2C(N)=O)sc1-c1ccnc(C(C)(C)C(F)(F)F)c1
< 0.316 nM: IC50 (second compound 10 µM)
1.84 nM: IC50 (second compound 3.16 µM)
> 100 nM: IC50 (second compound 0.0316 µM) | IC50 (second compound 0.1 µM) | IC50 (second compound 0.316 µM) | IC50 (second compound 1 µM)
inactive: viability, T/C (second compound 0.0316 µM, first compound 0.000316 µM) 101% | viability, T/C (second compound 0.0316 µM, first compound 0.001 µM) 97.2% | viability, T/C (second compound 0.0316 µM, first compound 0.00316 µM) 95.9% | viability, T/C (second compound 0.0316 µM, first compound 0.01 µM) 109% | viability, T/C [1] 81.1% | viability, T/C [2] 94.8% | viability, T/C (second compound 0.1 µM, first compound 0.000316 µM) 106% | viability, T/C (second compound 0.1 µM, first compound 0.001 µM) 77.2% | viability, T/C (second compound 0.1 µM, first compound 0.00316 µM) 85.2% | viability, T/C (second compound 0.1 µM, first compound 0.01 µM) 91.3% | viability, T/C [3] 75.6% | viability, T/C [4] 90.3% | viability, T/C (second compound 0.316 µM, first compound 0.000316 µM) 81.5% | viability, T/C (second compound 0.316 µM, first compound 0.001 µM) 89.5% | viability, T/C (second compound 0.316 µM, first compound 0.00316 µM) 85.3% | viability, T/C (second compound 0.316 µM, first compound 0.01 µM) 73.8% | viability, T/C [5] 58.4% | viability, T/C [6] 54.7% | viability, T/C (second compound 1 µM, first compound 0.000316 µM) 87.2% | viability, T/C (second compound 1 µM, first compound 0.001 µM) 65% | viability, T/C (second compound 1 µM, first compound 0.00316 µM) 50.3% | viability, T/C (second compound 1 µM, first compound 0.01 µM) 57.4% | viability, T/C [7] 55.5% | viability, T/C [8] 65% | viability, T/C (second compound 3.16 µM, first compound 0.000316 µM) 52.6% | viability, T/C (second compound 3.16 µM, first compound 0.001 µM) 43.5% | viability, T/C (second compound 3.16 µM, first compound 0.00316 µM) 61.8% | viability, T/C (second compound 3.16 µM, first compound 0.01 µM) 41% | viability, T/C [9] 49.4% | viability, T/C [10] 44.7% | viability, T/C (second compound 10 µM, first compound 0.000316 µM) 28.2% | viability, T/C (second compound 10 µM, first compound 0.001 µM) 30.7% | viability, T/C (second compound 10 µM, first compound 0.00316 µM) 37.6% | viability, T/C (second compound 10 µM, first compound 0.01 µM) 29.1% | viability, T/C [11] 22.8% | viability, T/C [12] 22.5%

C=CC(=O)N1CCN(c2nc(=O)n(-c3c(C)ccnc3C(C)C)c3nc(-c4c(O)cccc4F)c(F)cc23)C(C)C1 (centres undefined) + CC(Nc1ncnc2nc[nH]c12)c1cc2cccc(Cl)c2c(=O)n1-c1ccccc1
> 10000 nM: IC50 (second compound 0.0316 µM) | IC50 (second compound 0.1 µM) | IC50 (second compound 0.316 µM) | IC50 (second compound 1 µM) | IC50 (second compound 3.16 µM) | IC50 (second compound 10 µM)
inactive: viability, T/C [1] 103% | viability, T/C [2] 89.2% | viability, T/C (second compound 0.0316 µM, first compound 0.316 µM) 81.2% | viability, T/C (second compound 0.0316 µM, first compound 1 µM) 84.3% | viability, T/C (second compound 0.0316 µM, first compound 3.16 µM) 85.8% | viability, T/C (second compound 0.0316 µM, first compound 10 µM) 91.8% | viability, T/C [3] 91% | viability, T/C [4] 87.4% | viability, T/C (second compound 0.1 µM, first compound 0.316 µM) 92% | viability, T/C (second compound 0.1 µM, first compound 1 µM) 79.8% | viability, T/C (second compound 0.1 µM, first compound 3.16 µM) 88.1% | viability, T/C (second compound 0.1 µM, first compound 10 µM) 96.8% | viability, T/C [5] 81.1% | viability, T/C [6] 86.4% | viability, T/C (second compound 0.316 µM, first compound 0.316 µM) 87.4% | viability, T/C (second compound 0.316 µM, first compound 1 µM) 88.8% | viability, T/C (second compound 0.316 µM, first compound 3.16 µM) 90% | viability, T/C (second compound 0.316 µM, first compound 10 µM) 82.3% | viability, T/C [7] 96.6% | viability, T/C [8] 89.4% | viability, T/C (second compound 1 µM, first compound 0.316 µM) 87.8% | viability, T/C (second compound 1 µM, first compound 1 µM) 88.4% | viability, T/C (second compound 1 µM, first compound 3.16 µM) 92.9% | viability, T/C (second compound 1 µM, first compound 10 µM) 93.3% | viability, T/C [9] 91.3% | viability, T/C [10] 90.9% | viability, T/C (second compound 3.16 µM, first compound 0.316 µM) 78.3% | viability, T/C (second compound 3.16 µM, first compound 1 µM) 79.7% | viability, T/C (second compound 3.16 µM, first compound 3.16 µM) 71.6% | viability, T/C (second compound 3.16 µM, first compound 10 µM) 89% | viability, T/C [11] 80.9% | viability, T/C [12] 82.5% | viability, T/C (second compound 10 µM, first compound 0.316 µM) 81.8% | viability, T/C (second compound 10 µM, first compound 1 µM) 97.3% | viability, T/C (second compound 10 µM, first compound 3.16 µM) 69.4% | viability, T/C (second compound 10 µM, first compound 10 µM) 88.3%
